Where a name gives a salt, the structure may show the parent alone. Read-outs that look alike come from different tables or passages of the source.
Experiments:
Pythium ultimum (PYU) = experiment: In-vitro plant fungicide test; assay type: cell-based; details: Globisporangium ultimum
[1] = tested on: Pseudomonas aerugenosa (PSAE); experiment: Minimum inhibitory concentration (MIC), broth two-fold serial dilution test; details: Pseudomonas, read-out: MIC (G-) PSAE, M9G (minimal salts media with glucose); Table IIIc, iodopropargyl esters of peptides
Rhizoctonia solani (RHI) = experiment: In-vitro plant fungicide test; assay type: cell-based; details: Rhizoctonia solani
ALT = experiment: In-vitro plant fungicide test; assay type: cell-based; parameters: inhibition of growth: concentration or dose not given beside the values; details: Table IVb, read-out: % Control at (ppm) indicated ALT
MON = experiment: In-vitro plant fungicide test; assay type: cell-based; details: Table IVb, read-out: % Control at (ppm) indicated MON
THREE FUNGI = experiment: MIC test against three fungi in Mycophile Broth, pH 5.0, read after 8 days (Table VII); assay type: cell-based; details: 192 h
Aspergillus niger (ANIG) = experiment: Minimum inhibitory concentration (MIC), broth two-fold serial dilution test; assay type: cell-based; details: Aspergillus niger, read-out: MIC (F) ANIG, M9G (minimal salts media with glucose); Table IIIc, iodopropargyl esters of peptides
UST = experiment: In-vitro plant fungicide test; assay type: cell-based; parameters: inhibition of growth: concentration or dose not given beside the values; details: Table IVb, read-out: % Control at (ppm) indicated UST
[2] = tested on: Cochliobolus sativus (HEL); experiment: In-vitro plant fungicide test; assay type: cell-based; details: Bipolaris sorokiniana
PSH = experiment: In-vitro plant fungicide test; assay type: cell-based; details: Table IVb, read-out: % Control at (ppm) indicated PSH
Escherichia coli (ECOL) = experiment: Minimum inhibitory concentration (MIC), broth two-fold serial dilution test; details: Escherichia coli, read-out: MIC (G-) ECOL, M9G (minimal salts media with glucose); Table IIIc, iodopropargyl esters of peptides
Septoria nodorum (SEP) = experiment: In-vitro plant fungicide test; assay type: cell-based; details: Parastagonospora nodorum
[3] = tested on: Xanthomonas campestris (XAN); experiment: In-vitro plant fungicide test; assay type: cell-based; parameters: inhibition of growth: concentration or dose not given beside the values; details: Xanthomonas campestris
[4] = tested on: Staphylococcus aureus (SAUR); experiment: Minimum inhibitory concentration (MIC), broth two-fold serial dilution test; details: Staphylococcus aureus, read-out: MIC (G+) SAUR, M9G (minimal salts media with glucose); Table IIIc, iodopropargyl esters of peptides
[5] = Table IVb, read-out: % Control at (ppm) indicated XAN

## C[C@H](N)C(=O)N[C@@H](COCc1ccccc1)C(=O)OCC#CI [Compound 19, L-alanyl-O-benzyl-L-serine iodopropargyl ester trifluoroacetate]
Pythium ultimum (PYU); 1.5 ppm, Table IVb, read-out: % Control at (ppm) indicated PYU
  inhibition of growth at 1.5 ppm: 0%
Pythium ultimum (PYU); 6 ppm, Table IVb, read-out: % Control at (ppm) indicated PYU
  inhibition of growth at 6 ppm: 0%
Pythium ultimum (PYU); Table IVa, read-out: % Control at 25 ppm PYU
  inhibition of growth at 25 ppm: 100%
Pythium ultimum (PYU); Table IVb, read-out: % Control at (ppm) indicated PYU
  inhibition of growth at 25 ppm: 100%
Pythium ultimum (PYU); .2 ppm, Table IVb, read-out: % Control at (ppm) indicated PYU
  inhibition of growth at 0.2 ppm: 0%
Pythium ultimum (PYU); .4 ppm, Table IVb, read-out: % Control at (ppm) indicated PYU
  inhibition of growth at 0.4 ppm: 0%
Pythium ultimum (PYU); .8 ppm, Table IVb, read-out: % Control at (ppm) indicated PYU
  inhibition of growth at 0.8 ppm: 0%
[1]
  MIC: 50 µg/mL
Rhizoctonia solani (RHI); 1.5 ppm, Table IVb, read-out: % Control at (ppm) indicated RHI
  inhibition of growth at 1.5 ppm: 0%
Rhizoctonia solani (RHI); 6 ppm, Table IVb, read-out: % Control at (ppm) indicated RHI
  inhibition of growth at 6 ppm: 0%
Rhizoctonia solani (RHI); Table IVa, read-out: % Control at 25 ppm RHI
  inhibition of growth at 25 ppm: 100%
Rhizoctonia solani (RHI); Table IVb, read-out: % Control at (ppm) indicated RHI
  inhibition of growth at 25 ppm: 100%
Rhizoctonia solani (RHI); .2 ppm, Table IVb, read-out: % Control at (ppm) indicated RHI
  inhibition of growth at 0.2 ppm: 0%
Rhizoctonia solani (RHI); .4 ppm, Table IVb, read-out: % Control at (ppm) indicated RHI
  inhibition of growth at 0.4 ppm: 0%
Rhizoctonia solani (RHI); .8 ppm, Table IVb, read-out: % Control at (ppm) indicated RHI
  inhibition of growth at 0.8 ppm: 0%
ALT; 1.5 ppm
  inhibition of growth at 1.5 ppm: 0%
ALT; 3 ppm
  inhibition of growth at 3 ppm: 50%
ALT; 6 ppm
  inhibition of growth at 6 ppm: 75%
ALT; 25 ppm
  inhibition of growth at 25 ppm: 100%
ALT; .2 ppm
  inhibition of growth at 0.2 ppm: 0%
ALT; .4 ppm
  inhibition of growth at 0.4 ppm: 0%
ALT; .8 ppm
  inhibition of growth at 0.8 ppm: 0%
ALT
  inhibition of growth: 100%
MON; 1.5 ppm
  inhibition of growth at 1.5 ppm: 50%
MON; 6 ppm
  inhibition of growth at 6 ppm: 100%
MON; 25 ppm
  inhibition of growth at 25 ppm: 100%
MON; .2 ppm
  inhibition of growth at 0.2 ppm: 0%
MON; .4 ppm
  inhibition of growth at 0.4 ppm: 0%
MON; .8 ppm
  inhibition of growth at 0.8 ppm: 0%
THREE FUNGI; Aspergillus niger, pH 5, read-out: MIC ANIG, Aspergillus niger, serial dilutions from 50 ppm, read after 8 days of incubation
  MIC: 50 µg/mL
THREE FUNGI; Aureobasidium pullulans, pH 5, read-out: MIC APUL, Aureobasidium pullulans, serial dilutions from 50 ppm, read after 8 days of incubation
  MIC: 50 µg/mL
THREE FUNGI; Gloeophyllum trabeum, pH 5, read-out: MIC GTRA, Gloeophyllum trabeum, serial dilutions from 50 ppm, read after 8 days of incubation
  MIC: 50 µg/mL
Aspergillus niger (ANIG)
  MIC: < 0.8 µg/mL
UST; 1.5 ppm
  inhibition of growth at 1.5 ppm: 0%
UST; 3 ppm
  inhibition of growth at 3 ppm: 0%
UST; 6 ppm
  inhibition of growth at 6 ppm: 100%
UST; 25 ppm
  inhibition of growth at 25 ppm: 100%
UST; .2 ppm
  inhibition of growth at 0.2 ppm: 0%
UST; .4 ppm
  inhibition of growth at 0.4 ppm: 0%
UST; .8 ppm
  inhibition of growth at 0.8 ppm: 0%
UST
  inhibition of growth: 100%
[2]; 1.5 ppm, Table IVb, read-out: % Control at (ppm) indicated HEL
  inhibition of growth at 1.5 ppm: 0%
[2]; 6 ppm, Table IVb, read-out: % Control at (ppm) indicated HEL
  inhibition of growth at 6 ppm: 0%
[2]; Table IVa, *=Phytotoxic, read-out: % Control at 25 ppm HEL
  inhibition of growth at 25 ppm: 100%
[2]; Table IVb, read-out: % Control at (ppm) indicated HEL
  inhibition of growth at 25 ppm: 100%
[2]; .2 ppm, Table IVb, read-out: % Control at (ppm) indicated HEL
  inhibition of growth at 0.2 ppm: 0%
[2]; .4 ppm, Table IVb, read-out: % Control at (ppm) indicated HEL
  inhibition of growth at 0.4 ppm: 0%
[2]; .8 ppm, Table IVb, read-out: % Control at (ppm) indicated HEL
  inhibition of growth at 0.8 ppm: 0%
PSH; 1.5 ppm
  inhibition of growth at 1.5 ppm: 50%
PSH; 6 ppm
  inhibition of growth at 6 ppm: 100%
PSH; .2 ppm
  inhibition of growth at 0.2 ppm: 0%
PSH; .4 ppm
  inhibition of growth at 0.4 ppm: 0%
PSH; .8 ppm
  inhibition of growth at 0.8 ppm: 0%
Escherichia coli (ECOL)
  MIC: 100 µg/mL
Septoria nodorum (SEP); 1.5 ppm, Table IVb, read-out: % Control at (ppm) indicated SEP
  inhibition of growth at 1.5 ppm: 50%
Septoria nodorum (SEP); 6 ppm, Table IVb, read-out: % Control at (ppm) indicated SEP
  inhibition of growth at 6 ppm: 100%
Septoria nodorum (SEP); Table IVa, read-out: % Control at 25 ppm SEP
  inhibition of growth at 25 ppm: 100%
Septoria nodorum (SEP); Table IVb, read-out: % Control at (ppm) indicated SEP
  inhibition of growth at 25 ppm: 100%
Septoria nodorum (SEP); .2 ppm, Table IVb, read-out: % Control at (ppm) indicated SEP
  inhibition of growth at 0.2 ppm: 0%
Septoria nodorum (SEP); .4 ppm, Table IVb, read-out: % Control at (ppm) indicated SEP
  inhibition of growth at 0.4 ppm: 0%
Septoria nodorum (SEP); .8 ppm, Table IVb, read-out: % Control at (ppm) indicated SEP
  inhibition of growth at 0.8 ppm: 0%
[3]; 1.5 ppm, Table IVb, read-out: % Control at (ppm) indicated XAN
  inhibition of growth at 1.5 ppm: 0%
[3]; 3 ppm, Table IVb, read-out: % Control at (ppm) indicated XAN
  inhibition of growth at 3 ppm: 0%
[3]; 6 ppm, Table IVb, read-out: % Control at (ppm) indicated XAN
  inhibition of growth at 6 ppm: 0%
[3]; Table IVa, read-out: % Control at 25 ppm XAN
  inhibition of growth at 25 ppm: 0%
[3]; [5]
  inhibition of growth at 25 ppm: 0%
  inhibition of growth: 0%
[3]; .2 ppm, Table IVb, read-out: % Control at (ppm) indicated XAN
  inhibition of growth at 0.2 ppm: 0%
[3]; .4 ppm, Table IVb, read-out: % Control at (ppm) indicated XAN
  inhibition of growth at 0.4 ppm: 0%
[3]; .8 ppm, Table IVb, read-out: % Control at (ppm) indicated XAN
  inhibition of growth at 0.8 ppm: 0%
[4]
  MIC: 100 µg/mL

— patent EP0414533A1, “Use of iodopropargyl esters of alpha-amino acid derivatives as antimicrobial agents” (ROHM AND HAAS COMPANY, priority 1989, dated 1991)
